{"source": "patent US7566528B2", "about": "“Method for the identification and/or validation of receptor tyrosine kinase inhibitors” (Esbatech AG, priority 2003, dated 2009)", "key": {"[1]": {"target": "T1, human receptor tyrosine kinase PDGFR-β (Homo sapiens, UniProt P09619)", "T1 construct": "N-terminus of the cytoplasmic domains of c-Met (AA932-1366) and PDGFRβ (AA524-1067); myristoylation signal (membrane anchoring) (N); expressed in transfected cells; host or cells: yeast (S. cerevisiae preferred)", "T1 sequence (P09619 556-1099)": "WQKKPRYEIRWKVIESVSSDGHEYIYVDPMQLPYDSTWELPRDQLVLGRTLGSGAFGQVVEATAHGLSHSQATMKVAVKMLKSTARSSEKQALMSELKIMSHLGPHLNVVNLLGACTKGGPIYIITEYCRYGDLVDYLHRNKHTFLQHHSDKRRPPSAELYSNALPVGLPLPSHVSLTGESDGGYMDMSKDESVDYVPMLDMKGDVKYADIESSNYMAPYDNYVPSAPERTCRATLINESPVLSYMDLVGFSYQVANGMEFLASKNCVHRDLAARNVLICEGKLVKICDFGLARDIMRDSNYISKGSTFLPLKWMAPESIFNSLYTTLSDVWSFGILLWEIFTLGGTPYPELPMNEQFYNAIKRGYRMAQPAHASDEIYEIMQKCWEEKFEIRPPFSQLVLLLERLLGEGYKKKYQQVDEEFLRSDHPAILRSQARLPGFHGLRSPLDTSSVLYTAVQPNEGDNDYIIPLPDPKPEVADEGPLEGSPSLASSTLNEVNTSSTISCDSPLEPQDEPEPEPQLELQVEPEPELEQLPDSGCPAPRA", "assay": "Yeast growth restoration assay, cells expressing PDGFR-β (OD 600 nm)", "assay_type": "cell-based", "details": "50 μM in the yeast culture; OD 600 nm light scattering; FIG. 3", "description": "(§1) Selection of specific inhibition of Receptor Tyrosine Kinase activity in yeast."}, "[2]": {"tested_on": "human receptor tyrosine kinase RET", "assay": "Yeast growth restoration assay, cells expressing RET (OD 600 nm)", "assay_type": "cell-based", "details": "50 μM in the yeast culture; OD 600 nm light scattering; FIG. 3", "description": "as §1"}}, "note": "“Also recorded” adds a separate entry of the source. Structures can show the parent of a compound that is named as a salt.", "data": [{"smiles": "Cc1ccc(NC(=O)c2ccc(CN3CCN(C)CC3)cc2)cc1Nc1nccc(-c2cccnc2)n1", "note": "[imatinib mesylate]", "values": [{"measurement": "restoration of growth of PDGFR-β-expressing yeast cells", "setting": "[1]", "result": "restore growth under selective conditions; also recorded: specifically restores growth"}, {"measurement": "restoration of growth of RET-expressing yeast cells", "setting": "[2]", "result": "not growth of cells expressing RET"}]}]}
